Consider four compounds from ChEMBL document CHEMBL3880394, “Benzazole derivatives and their use as jnk modulators” (2003).

A short description of assay [1]: Antiinflammatory activity in human Jurkat cells assessed as inhibition of PMA/ionomycine-induced IL2 production preincubated for 30 mins followed by PMA/ionomycine induction measured after 24 hrs by ELISA relative to control. The assay is classed as functional. Background: An ELISA detects its analyte on a solid surface through an enzyme-linked reagent.
A short description of assay [2]: Neuroprotective activity against NGF, arabinosine deficiency and anti NGF antibody-mediated cell death in sympathetic neurons from new born rat superior cervical ganglia assessed as survival rate after 24 hrs by MTT assay relative to control. The assay is classed as functional, Sympathetic neuron. In general terms: Tetrazolium assays rely on reduction of a dye to a coloured formazan, in cell work by metabolically active cells.

Consider `N#CC(c1ccnc(Cl)n1)c1nc2ccccc2s1` (stereo not given), for which, in assay [1], the “inhibition (INH)” value is above 30%. For the same compound, the Survival result in assay [2] is listed as “<=80%”.

In the case of `N#CC(c1ccnc(OCc2ccccn2)n1)c1nc2ccccc2s1` (stereo not given), the “inhibition (INH)” value in assay [1] is listed as above 30%. For the compound `N#CC(c1ccnc(OCc2ccc(Cl)c(Cl)c2)n1)c1nc2ccccc2s1` (stereo not given), the Survival result in assay [2] is given as “<=80%”.

Regarding `N#CC(c1ccnc(NCCCn2ccnc2)n1)c1nc2ccccc2s1` (stereo not given), the Survival result in assay [2] was “<=80%”.
